These are literature values, as cited in US8691803B2, “Process for the preparation of antibiotic compounds” (Savior Lifetec Corporation, priority 2011, dated 2014).

For this series the following is noted: storage; must be stored at a low temperature.

As for `C[C@@H](O)[C@H]1C(=O)N2C(C(=O)O)=C(S[C@@H]3CN[C@H](C(=O)Nc4cccc(C(=O)O)c4)C3)[C@H](C)[C@H]12` [ertapenem], the Temperature stability entry was “unstable above −20 °C”.
